Earlier results as cited in patent US20150150789A1, “ANTIMICROBIAL COMPOSITIONS AND METHODS FOR PREVENTING INFECTION IN SURGICAL INCISION SITES” (TYRX, Inc., priority 2013, published 2015).

Conditions: for solubility in organic solvents: alcohols, ketones, ethers, aldehydes, acetonitrile, acetic acid, methylene chloride, chloroform (novobiocin sodium: alcohol)

| solubility in organic solvents | solubility in water | solubility in acidic aqueous solutions (acidic aqueous solutions) | Structure (SMILES) |
| --- | --- | --- | --- |
| soluble | slightly soluble |  | CC[C@H]1OC(=O)[C@H](C)[C@@H](O[C@H]2C[C@@](C)(OC)[C@@H](O)[C@H](C)O2)[C@H](C)[C@@H](O[C@@H]2O[C@H](C)C[C@H](N(C)C)[C@H]2O)[C@](C)(O)C[C@@H](C)C(=O)[C@H](C)[C@@H](O)[C@]1(C)O [Erythromycin] |
| readily soluble | readily soluble |  | CCOc1ccc2ccccc2c1C(=O)N[C@@H]1C(=O)N2[C@@H]1SC(C)(C)[C@@H]2C(=O)O [Nafcillin] |
| freely soluble | freely soluble |  | CO[C@@H]1[C@@H](OC(N)=O)[C@@H](O)[C@H](Oc2ccc3c(O)c(NC(=O)c4ccc(O)c(CC=C(C)C)c4)c(=O)oc3c2C)OC1(C)C [Novobiocin sodium] |
| freely soluble | very slightly soluble | freely soluble | CO[C@H]1/C=C/O[C@@]2(C)Oc3c(C)c(O)c4c(O)c(c(/C=N/N5CCN(C)CC5)c(O)c4c3C2=O)NC(=O)/C(C)=C\C=C\[C@H](C)[C@H](O)[C@@H](C)[C@@H](O)[C@@H](C)[C@H](OC(C)=O)[C@@H]1C [Rifampin, rifampin] |

| Structure (SMILES) | solubility in organic solvents | solubility in water | solubility in acidic aqueous solutions (acidic aqueous solutions) |
| --- | --- | --- | --- |
| Oc1c(Cl)cc(Cl)c(Cl)c1Cc1c(O)c(Cl)cc(Cl)c1Cl [Hexachlorophene] | soluble | soluble |  |
